IC50 data for 17 compounds are collected here from patent US20210198277A1, “AMINE-SUBSTITUTED ARYL OR HETEROARYL COMPOUNDS” (Epizyme, Inc., priority 2016, published 2021).

The target of the test is T1, EHMT1 (Homo sapiens, UniProt Q9H9B1).
T1 sequence (Q9H9B1 1-1298): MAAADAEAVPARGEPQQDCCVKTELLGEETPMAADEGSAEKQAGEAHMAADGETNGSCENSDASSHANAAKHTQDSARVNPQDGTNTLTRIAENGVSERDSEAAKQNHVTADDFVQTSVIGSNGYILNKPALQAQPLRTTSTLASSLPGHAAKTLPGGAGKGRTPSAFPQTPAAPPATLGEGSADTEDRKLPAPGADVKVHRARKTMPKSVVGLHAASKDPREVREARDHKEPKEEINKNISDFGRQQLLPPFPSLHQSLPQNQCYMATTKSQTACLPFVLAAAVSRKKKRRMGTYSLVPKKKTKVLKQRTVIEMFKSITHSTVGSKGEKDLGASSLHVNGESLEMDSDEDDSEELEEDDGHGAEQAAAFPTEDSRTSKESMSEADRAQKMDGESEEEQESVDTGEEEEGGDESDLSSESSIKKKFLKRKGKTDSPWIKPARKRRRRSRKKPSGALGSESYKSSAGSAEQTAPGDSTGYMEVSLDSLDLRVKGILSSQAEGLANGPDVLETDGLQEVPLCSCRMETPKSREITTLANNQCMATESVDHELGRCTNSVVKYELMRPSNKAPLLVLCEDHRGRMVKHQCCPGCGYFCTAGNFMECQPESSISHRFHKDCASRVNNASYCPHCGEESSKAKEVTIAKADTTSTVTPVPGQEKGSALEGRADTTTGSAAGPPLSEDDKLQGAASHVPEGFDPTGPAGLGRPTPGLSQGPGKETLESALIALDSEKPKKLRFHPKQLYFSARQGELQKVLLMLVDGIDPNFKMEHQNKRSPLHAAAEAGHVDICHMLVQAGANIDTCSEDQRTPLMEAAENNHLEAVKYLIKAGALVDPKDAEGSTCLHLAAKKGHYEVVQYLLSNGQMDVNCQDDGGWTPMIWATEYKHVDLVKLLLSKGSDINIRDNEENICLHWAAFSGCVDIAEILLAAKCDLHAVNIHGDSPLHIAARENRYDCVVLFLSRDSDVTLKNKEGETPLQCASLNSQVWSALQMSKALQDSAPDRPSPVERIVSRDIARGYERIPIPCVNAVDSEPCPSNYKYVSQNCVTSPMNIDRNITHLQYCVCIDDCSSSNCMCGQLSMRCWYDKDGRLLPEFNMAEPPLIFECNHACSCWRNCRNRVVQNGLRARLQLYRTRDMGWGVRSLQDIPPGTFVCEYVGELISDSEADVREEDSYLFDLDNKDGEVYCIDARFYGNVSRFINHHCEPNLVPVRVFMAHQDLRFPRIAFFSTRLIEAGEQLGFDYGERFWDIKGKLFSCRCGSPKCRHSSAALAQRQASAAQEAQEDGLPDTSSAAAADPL
Nature of the test: EHMT1 enzyme assay on peptide substrate (EHMT1 PEP). Format: biochemical. The conditions noted are these: Table VI; read-out: EHMT1 PEP IC50.

For the compound `CNc1nc(C2=CC(C)(C)NC(C)(C)C2)c2cc(OC)c(OCCCN3CCCC3)cc2n1` [Compound 961], the IC50 was in the range of 1000 to 10000 nM.
For `CNc1cc(C)nc(Nc2ccc(OC)c(OC[C@H](O)CNC3CCC3)c2)n1` [Compound 962] the value was 100 to 1000 nM; for `CNc1cc(C)nc(Nc2cnc(OC)c(OC[C@H](O)CN3CCC3)c2)n1` [Compound 963], under 100 nM; for `CNCCNCc1cc(Nc2nc(C)cc(NC)n2)ccc1OC` [Compound 964], under 100 nM.
Consider `CNc1cc(C)nc(Nc2ccc(OC)c(CNCCN3CCC3)c2)n1` [Compound 965], for which the IC50 was under 100 nM.
With `CNc1ccnc(Nc2cnc(OC)c(OC[C@@H]3CCN(C4CCC4)C3)n2)n1` [Compound 974] the figure was under 100 nM; with `CNc1cc(C)nc(Nc2ccc(OC)c(OC[C@H](O)CN3CC(C)C3)c2)n1` [Compound 985], under 100 nM.
With `CNc1cc(C)nc(Nc2ccc(OC)c(OC[C@H](O)CN3CC(F)C3)c2)n1` [Compound 986] the figure was 100 to 1000 nM.
For `CNc1cc(C)nc(Nc2ccc(OC)c(CNCCN(C)C)c2)n1` [Compound 990] the value was under 100 nM; for `CNc1ccnc(Nc2ccc(OC)c(OCC(C)(O)CN3CCC3)c2)n1` (centres unmarked) [Compound 1005], 1000 to 10000 nM.
Turning to `CCN1CCC(O)(COc2cc(Nc3nccc(NC)n3)ccc2OC)C1` (centres unmarked) [Compound 1006], the IC50 is under 100 nM.
For `CCN1CCC(O)(COc2cc(Nc3nccc(NC)n3)ccc2OC)C1` (centres unmarked) [Compound 1007] the value was 1000 to 10000 nM; for `CNc1ccnc(Nc2ccc(OC)c(OCC(C)CN3CCC3)c2)n1` (centres unmarked) [Compound 1008], under 100 nM; for `CNCC(C)COc1cc(Nc2nccc(NC)n2)ccc1OC` (centres unmarked) [Compound 1009], 1000 to 10000 nM.
Regarding `CNCCC(C)Oc1cc(Nc2nccc(NC)n2)ccc1OC` (centres unmarked) [Compound 1011], the IC50 was in the range of 1000 to 10000 nM.
With `CNc1ccnc(Nc2ccc(OC)c(OCCC(C)N3CCC3)c2)n1` (centres unmarked) [Compound 1014], the IC50 lay in the range of 100 to 1000 nM.
For `CNc1ccnc(Nc2ccc(OC)c(OCCC(C)NC)c2)n1` (centres unmarked) [Compound 1016] the value was 100 to 1000 nM.

By IC50 is commonly meant the point on the concentration scale where inhibition reaches its midpoint.
